Assay results as given in patent US10174016B2 (BAYER AKTIENGESELLSCHAFT, priority 2014, dated 2019).
Read-outs that look alike come from different tables or passages of the source.

Key:
[1] = target: CYP1A2 (Homo sapiens (Human), UniProt P05177); experiment: CYP inhibition assay, CYP1A2
Description: (§1) Method Description CYP Inhibition Assay
(§2) Data analysis: The CYP-mediated activities in the presence of inhibitors were expressed as percentages of the corresponding control values. A sigmoid-shaped curve was fitted to the data, and the enzyme inhibition parameter IC50 was calculated using a nonlinear least-squares regression analysis of the plot of percent control activity versus concentration of the test inhibitor.

[2] = tested on: rat hepatocytes; experiment: In vitro metabolic stability in rat hepatocytes; type: in vitro ADME, Han Wistar rats; settings: 1 μM, 1.0×10^6 cells/mL, maximal oral bioavailability calculated from half-life
Description: Determination of in vitro metabolic stability in rat hepatocytes (including calculation of hepatic in vivo blood clearance (CL))
Hepatocytes from Han Wistar rats were isolated via a 2-step perfusion method. After perfusion, the liver was carefully removed from the rat: the liver capsule was opened and the hepatocytes were gently shaken out into a Petri dish with ice-cold Williams' medium E (WME). The resulting cell suspension was filtered through sterile gaze in 50 mL falcon tubes and centrifuged at 50×g for 3 min at room temperature. The cell pellet was resuspended in 30 mL WME and centrifuged through a Percoll® gradient for 2 times at 100×g. The hepatocytes were washed again with WME and resuspended in medium containing 5% FCS. Cell viability was determined by trypan blue exclusion.
The test compound was added to a final concentration of 1 μM. […] Samples were frozen at −20° C. overnight, subsequently centrifuged for 15 minutes at 3000 rpm and the supernatant was analyzed with an Agilent 1200 HPLC-system with LCMS/MS detection.
(§3) The half-life of a test compound was determined from the concentration-time plot. From the half-life (kel: slope of concentration-time plot; half-life=ln 2/kel) the intrinsic clearances were calculated. Together with the additional parameters liver blood flow, amount of liver cells in vivo and in vitro.
(§4) Metabolic instability is often the main clearance mechanism of xenobiotica leading to a high CL and low bioavailability which may eventually result in a short half-life and a low exposure after oral administration. Thus, reducing the susceptibility of metabolic degradation usually leads to a more favourable pharmacokinetic profile. When using liver microsomes as incubation matrix main phase I metabolic reactions, typically oxidoreductive reactions by cytochrome P450 enzymes and flavin mono-oxygenases (FMO) and hydrolytic reactions by esterases/amidases/epoxidhydrolases, are described. When the incubation of the test compound is performed in a hepatocyte matrix all potential hepatic metabolic processes (phase I and phase II) are covered.

[3] = target: T1, CYP3A4 (Homo sapiens (Human), UniProt P08684); experiment: CYP inhibition assay, CYP3A4; type: in vitro ADME; settings: human liver microsomes, probe midazolam
T1 sequence (P08684 whole entry): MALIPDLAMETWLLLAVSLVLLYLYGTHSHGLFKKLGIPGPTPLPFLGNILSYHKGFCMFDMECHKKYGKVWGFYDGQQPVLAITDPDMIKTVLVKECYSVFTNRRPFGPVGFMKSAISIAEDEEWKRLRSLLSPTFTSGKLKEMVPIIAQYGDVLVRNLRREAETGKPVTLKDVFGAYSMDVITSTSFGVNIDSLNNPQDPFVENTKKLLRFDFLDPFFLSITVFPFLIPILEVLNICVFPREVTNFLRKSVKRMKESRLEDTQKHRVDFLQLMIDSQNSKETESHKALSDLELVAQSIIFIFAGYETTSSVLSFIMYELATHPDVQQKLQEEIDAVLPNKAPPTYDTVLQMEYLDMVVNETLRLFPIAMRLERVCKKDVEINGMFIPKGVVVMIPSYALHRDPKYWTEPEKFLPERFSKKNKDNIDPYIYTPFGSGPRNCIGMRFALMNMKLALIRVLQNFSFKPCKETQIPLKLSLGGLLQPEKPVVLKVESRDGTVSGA
Description: as §1, §2

[4] = In vitro metabolic stability in liver microsomes (calculation of CL and Fmax); type: in vitro ADME, human; settings: 1 μM, 0.5 mg/mL protein, maximal oral bioavailability calculated from half-life
Description: In Vitro Metabolic Stability Assays Determination of in vitro metabolic stability in microsomes (including calculation of hepatic in vivo blood clearance (CL) and of maximal oral bioavailability (Fmax))
The metabolic assay was started shortly afterwards by adding the test compound to the incubation at a final volume of 1 mL. Organic solvent in the incubations was limited to […] dimethylsulfoxide (DMSO) and ≤1% acetonitrile. […] Samples were frozen at −20° C. overnight, subsequently centrifuged for 15 minutes at 3000 rpm and the supernatant was analyzed with an Agilent 1200 HPLC-system with LCMS/MS detection.
as §3, with “specific” for “amount of”, “weight and microsomal protein content the hepatic” for “cells”, “vivo blood clearance (CL)” for “vivo”, “the maximal oral bioavailability (Fmax) were calculated for the different species.” for “in vitro.”
as §4

[5] = target: CYP2C9 (Homo sapiens (Human), UniProt P11712); experiment: CYP inhibition assay, CYP2C9; type: in vitro ADME; settings: human liver microsomes, probe diclofenac
Sequence of CYP2C9 (P11712 whole entry): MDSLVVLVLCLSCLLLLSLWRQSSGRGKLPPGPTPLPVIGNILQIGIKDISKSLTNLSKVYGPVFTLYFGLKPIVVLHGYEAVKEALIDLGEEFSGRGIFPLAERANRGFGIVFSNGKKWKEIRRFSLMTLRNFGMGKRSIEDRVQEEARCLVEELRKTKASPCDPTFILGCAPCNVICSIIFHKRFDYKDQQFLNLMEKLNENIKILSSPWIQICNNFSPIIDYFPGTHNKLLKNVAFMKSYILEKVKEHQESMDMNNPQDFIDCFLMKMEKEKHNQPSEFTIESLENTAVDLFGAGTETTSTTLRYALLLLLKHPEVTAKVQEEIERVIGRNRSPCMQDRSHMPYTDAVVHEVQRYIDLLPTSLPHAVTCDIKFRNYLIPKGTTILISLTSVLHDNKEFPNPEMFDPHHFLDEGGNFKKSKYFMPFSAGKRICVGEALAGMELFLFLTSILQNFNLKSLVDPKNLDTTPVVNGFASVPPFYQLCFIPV
Description: as §1, §2

[6] = target: CYP2D6 (Homo sapiens (Human), UniProt P10635); experiment: CYP inhibition assay, CYP2D6; type: in vitro ADME; settings: human liver microsomes, probe dextromethorphan
Sequence of CYP2D6 (P10635 whole entry): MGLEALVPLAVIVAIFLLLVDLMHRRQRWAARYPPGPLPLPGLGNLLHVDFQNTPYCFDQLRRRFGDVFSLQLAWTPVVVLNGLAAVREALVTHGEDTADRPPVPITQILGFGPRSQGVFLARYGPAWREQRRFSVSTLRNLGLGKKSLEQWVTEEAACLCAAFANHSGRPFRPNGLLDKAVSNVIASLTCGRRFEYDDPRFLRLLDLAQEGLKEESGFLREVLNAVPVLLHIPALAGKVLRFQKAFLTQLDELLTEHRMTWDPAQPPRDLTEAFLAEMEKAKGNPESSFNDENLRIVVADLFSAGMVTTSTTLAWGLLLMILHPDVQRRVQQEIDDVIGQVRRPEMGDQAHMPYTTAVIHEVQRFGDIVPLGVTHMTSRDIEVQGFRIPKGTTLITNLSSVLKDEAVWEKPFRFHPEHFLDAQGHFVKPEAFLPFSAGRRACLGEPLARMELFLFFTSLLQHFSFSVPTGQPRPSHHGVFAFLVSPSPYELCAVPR
Description: as §1, §2

[7] = target: CYP2C8 (Homo sapiens (Human), UniProt P10632); experiment: CYP inhibition assay, CYP2C8; type: in vitro ADME; settings: human liver microsomes, probe amodiquine
Sequence of CYP2C8 (P10632 whole entry): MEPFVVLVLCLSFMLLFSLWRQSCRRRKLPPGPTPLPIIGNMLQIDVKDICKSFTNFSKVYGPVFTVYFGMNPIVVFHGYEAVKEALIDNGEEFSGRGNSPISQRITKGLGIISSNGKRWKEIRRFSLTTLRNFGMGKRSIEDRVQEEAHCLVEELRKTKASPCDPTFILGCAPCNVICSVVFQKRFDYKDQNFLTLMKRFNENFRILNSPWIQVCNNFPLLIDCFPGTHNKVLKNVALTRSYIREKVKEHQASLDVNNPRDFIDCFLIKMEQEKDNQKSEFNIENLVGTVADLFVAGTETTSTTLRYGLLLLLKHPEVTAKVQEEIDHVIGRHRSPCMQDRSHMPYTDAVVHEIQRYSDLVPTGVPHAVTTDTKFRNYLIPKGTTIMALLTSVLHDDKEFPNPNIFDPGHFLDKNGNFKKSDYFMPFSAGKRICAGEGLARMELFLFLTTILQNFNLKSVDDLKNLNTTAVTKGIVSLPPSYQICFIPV
Description: as §1, §2

[8] = target: T1, CYP3A4; experiment: Pre-incubation CYP inhibition assay, CYP3A4 (time dependent inhibition); type: in vitro ADME; settings: human liver microsomes, probe midazolam, 30 min pre-incubation; read-out: CYP3A4 with preincubation IC50
Text: as §1

[9] = tested on: taste sensation via the tongue; settings: clinical PhII trials, attributed to blockade of P2X2/3 channels; cited from earlier work
[10] = In vivo pharmacokinetics in dogs; settings: Beagle, plasma, dog
[11] = tested on: CFA-induced mechanical hyperalgesia; experiment: Rat CFA in vivo model (mechanical hyperalgesia, paw withdrawal threshold); design: species or system Male Sprague Dawley rats; settings: 3 mg/kg p.o., dosed 24 hours after CFA injection
Description: Rat CFA In Vivo Model Male Sprague Dawley rats were used. Mechanical hyperalgesia was induced by injecting 25 μl of Complete Freund's Adjuvant (CFA) into the plantar surface of one hind paw. Mechanical hyperalgesia was measured using the Pressure Application Measurement apparatus (Ugo Basile, Gemonio, Italy). Briefly, a linearly increasing pressure was applied to an area of ˜50 mm2 of the plantar side of the hind paw until a behavioural response (paw withdrawal) was observed or until the pressure reached 1000 gf. The pressure at which the behavioural response occurred was recorded as the “Paw Withdrawal Threshold” (PWT). Both CFA-injected and contralateral PWTs were determined for each rat, in each treatment group and at each time point of the studies. […] Compounds were dosed 24 hours after CFA injection. Data were expressed as the mean PWT for each treatment group and at each time point. Data were analysed by performing a repeated measures two way ANOVA (time×treatment). Planned comparison of means (each versus vehicle) was performed by using a Dunnett's post hoc test, provided that a main effect was detected. […] More preferred examples of the present invention show rat CFA in vivo efficacy in the ‘Paw withdrawal threshold 6 hours post drug’ measure when dosed at 3 mg/kg p.o.

[12] = tested on: vaginal hyperalgesia; experiment: Rat dyspareunia model (visceromotor response to vaginal distension); type: in vivo, female Sprague Dawley rats
Description: The visceromotor response (VMR) to vaginal distension was used in conscious animals as an objective measure of vaginal sensitivity. […] To measure VMR response, 2 Teflon-coated wire electrodes were sutured in the external oblique abdominal muscle, and tunneled subcutaneously to be exteriorized at the base of the neck for future access. On the day of VMR assessment, a lubricated small balloon (1 cm length) was inserted into the mid-vaginal canal. The balloon catheter was secured to the base of the tail and connected to a volume controller/timing device (infusion pump) for balloon distension. The vaginal balloon was inflated to ramp intensities of distension (0.05 ml increments every 20 sec.) to a maximal volume of 0.8 ml. The electrodes were connected to an amplifier (Animal Bio Amp, ADInstrunnents), and the abdominal electromyographic signal was recorded using a data acquisition system (PowerLab, ADInstrunnents) for off-line analysis using LabChart version 7. The number of abdominal muscle contractions was counted manually for each 0.1 ml distension step, as an index of vaginal pain. […] All data were expressed as mean±standard deviation (s.d.), for the number (n) of measured rats per group. […] Planned comparison of means (matched-volume versus vehicle) was performed using a Bonferroni post hoc test, provided that a main effect was detected. […]

[13] = tested on: CFA-induced mechanical hyperalgesia; experiment: Mouse CFA in vivo model (von Frey filaments); design: species or system Female C57BL/6 mice; settings: 25 mg/kg p.o. b.i.d., 72 hrs after CFA-injection
Description: Mouse CFA In Vivo Model […] Mechanical hyperalgesia was measured using von Frey filaments. Briefly, von Frey filaments were being used to stimulate the animal's hindpaw and a behavioural response was measured depending on the strength of the von Frey filament used. The strength of the filament was expressed in [g] and the threshold was recorded when a response of the animal was observed. Both CFA-injected and contralateral response thresholds were determined for each mouse and in each treatment group 72 hrs after CFA-injection. Compound application was done p.o. b.i.d., starting one hour before CFA injection. Data were expressed as the mean threshold for each treatment group. Data were analysed by performing a one way ANOVA over the different dose groups. Planned comparison of means (each versus vehicle) was performed by using a Dunnett's post hoc test, provided that a main effect was detected.

[14] = Human liver cytosol stability assay; type: in vitro ADME; settings: human liver cytosol 1 mg/mL, 1 or 10 μM, 37° C.
Description: Human Liver Cytosol Stability Assay
Method description: Human liver cytosol (pooled, >30 male and female donors) was incubated with individual test compounds in order to compare the extent of depletion of test compound and formation of the respective oxidised metabolite. […] An incubation volume of 1000 μL was used. The test compound was added from a stock solution in acetonitrile at 1 or 10 μM concentration in the incubation. Incubations were performed at 37° C. Reactions were stopped at 0 h and 4 h after incubation by addition of 100 μL acetonitrile to 250 μL of incubation mixture. Precipitated proteins were removed by centrifugation at approximately 3000 rpm. The supernatants were stored at approximately −20° C. until they were analysed. […]
Data analysis: The depletion of the test compound and formation of the corresponding metabolites were determined by decrease or increase of the corresponding peak area in the chromatogram after UV detection at approximately 300 nm 4 h after incubation compared to that at 0 h after incubation. […]

Sequence of CYP1A2 (P05177 whole entry): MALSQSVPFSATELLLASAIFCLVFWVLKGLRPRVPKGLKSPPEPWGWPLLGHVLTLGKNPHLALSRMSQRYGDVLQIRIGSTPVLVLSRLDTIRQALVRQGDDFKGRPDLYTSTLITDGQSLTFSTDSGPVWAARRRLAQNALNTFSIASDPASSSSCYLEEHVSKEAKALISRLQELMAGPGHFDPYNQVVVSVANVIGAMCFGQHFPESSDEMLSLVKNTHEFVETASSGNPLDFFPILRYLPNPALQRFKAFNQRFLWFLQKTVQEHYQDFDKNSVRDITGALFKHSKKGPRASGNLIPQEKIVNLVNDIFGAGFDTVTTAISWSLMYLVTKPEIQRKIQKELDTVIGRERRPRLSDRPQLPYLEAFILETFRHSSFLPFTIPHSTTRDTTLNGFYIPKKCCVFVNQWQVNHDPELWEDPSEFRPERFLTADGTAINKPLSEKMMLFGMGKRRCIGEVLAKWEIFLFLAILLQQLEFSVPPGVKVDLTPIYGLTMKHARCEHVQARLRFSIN

IC50 [1] [µM]	Rat hepatocyte Fmax [2] [%]	IC50 [3] [µM]	Human liver microsome Fmax [4] [%]	IC50 [5] [µM]	IC50 [6] [µM]	IC50 [7] [µM]	IC50 [8] [µM]	half-life ([10]; iv, 0.5 mg/kg i.v., read-out: Dog t½ i.v. (converted)) [h]	bioavailability ([10]; oral, 1 mg/kg p.o., 0.5 mg/kg i.v., read-out: Dog Bioavailability (BA)) [%]	half-life ([10]; po, 1 mg/kg p.o., read-out: Dog t½ p.o. (converted)) [h]	Test compound turnover after 4 h [14] [%]	Compound	effect on taste in treated subjects [9]	Paw withdrawal threshold 6 hour-post drug [11]	vaginal hyperalgesia compared to vehicle-treated animals ([12]; 15 mg/kg oral b.i.d. during 2 weeks)	AUC of cumulative number of abdominal contractions against vaginal distension volume ([12]; 15 mg/kg oral b.i.d. for 2 weeks, 6 weeks post-implantation (off-drug), mean ± s.d.)	Efficacy mouse CFA model (von Frey response threshold) [13]
> 20	53	> 20	100	> 20	> 20	> 20	> 20					Cc1cnc(-c2cc(OC(C)C(C)O)cc(C(=O)N[C@H](C)c3cnc(C(F)(F)F)nc3)c2)s1 (single isomer, unassigned) [Example 163]					
												COc1cc(C(C)C)c(Oc2cnc(N)nc2N)cc1S(N)(=O)=O [AF-219]	leads to taste disturbances				
	52		57					8.8	70	12	12	Cc1cnc(-c2cc(O[C@@H]3CCOC3)cc(C(=O)N[C@H](C)c3cnc(C(F)(F)F)nc3)c2)s1 [Example 11, 3-(5-Methyl-1,3-thiazol-2-yl)-5-[(3R)-tetrahydrofuran-3-yloxy]-N-{(1R)-1-[2-(trifluoromethyl)pyrimidin-5-yl]ethyl}benzamide]		639 ± 48 gf (*)	decreased vaginal hyperalgesia	1.64 ± 1.53 (17)	0.682 g ± 0.122 (*)
